Assay results reported in publication PMC7795171, “In Silico and In Vitro Analysis of Major Cannabis-Derived Compounds as Fatty Acid Amide Hydrolase Inhibitors” (Molecules, 2020).
Like-named read-outs stand apart in the source and are kept apart here.

How the values were obtained:
[1] = target: T1, hFAAH (Homo sapiens, UniProt O00519); assay: FAAH activity assay, purified human FAAH, [14C]AEA hydrolysis; type: biochemical
T1 construct: purchased Cayman Chemical Company
T1 sequence (O00519 1-579): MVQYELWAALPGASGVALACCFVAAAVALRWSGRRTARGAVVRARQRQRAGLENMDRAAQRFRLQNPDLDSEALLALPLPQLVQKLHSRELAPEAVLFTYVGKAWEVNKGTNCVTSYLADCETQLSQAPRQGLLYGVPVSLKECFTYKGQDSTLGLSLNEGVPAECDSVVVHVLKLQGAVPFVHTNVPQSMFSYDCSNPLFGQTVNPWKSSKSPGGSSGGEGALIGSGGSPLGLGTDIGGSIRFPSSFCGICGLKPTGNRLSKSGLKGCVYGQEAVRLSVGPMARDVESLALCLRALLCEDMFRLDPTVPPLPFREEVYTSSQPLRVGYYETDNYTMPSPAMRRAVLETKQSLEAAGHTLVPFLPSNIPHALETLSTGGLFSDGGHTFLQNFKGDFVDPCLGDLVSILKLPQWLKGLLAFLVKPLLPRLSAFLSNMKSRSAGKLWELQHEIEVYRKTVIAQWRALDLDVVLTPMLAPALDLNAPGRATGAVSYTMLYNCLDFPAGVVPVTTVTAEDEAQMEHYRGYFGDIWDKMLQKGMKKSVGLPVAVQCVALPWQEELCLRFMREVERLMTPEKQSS
Procedure: (§1) Rat brains were homogenized in 50 mM Tris-HCl (50 mM, pH 7.4), and were centrifuged sequentially at 800× g and 20,000× g; then, the supernatants were discharged, and rFAAH activity was tested in membrane preparations incubated with 10 µM [^14C]AEA at 37 °C for 15 min (pH = 9.0). The reaction was stopped with a 1:1 (v/v) mixture of chloroform/methanol and the release of [^14C]ethanolamine in the aqueous phase was measured as reported. Purified human FAAH was assayed in the same way as rFAAH.

[2] = target: T2, rFAAH (Rattus norvegicus, UniProt P97612); assay: FAAH activity assay, rat brain membranes, [14C]AEA hydrolysis; type: biochemical; details: for % In Vitro Inhibition (At 100 µm): rFAAH, compound at 100 µm
T2 construct: from tissue; host or cells: rat brain membranes
T2 sequence (P97612 1-579): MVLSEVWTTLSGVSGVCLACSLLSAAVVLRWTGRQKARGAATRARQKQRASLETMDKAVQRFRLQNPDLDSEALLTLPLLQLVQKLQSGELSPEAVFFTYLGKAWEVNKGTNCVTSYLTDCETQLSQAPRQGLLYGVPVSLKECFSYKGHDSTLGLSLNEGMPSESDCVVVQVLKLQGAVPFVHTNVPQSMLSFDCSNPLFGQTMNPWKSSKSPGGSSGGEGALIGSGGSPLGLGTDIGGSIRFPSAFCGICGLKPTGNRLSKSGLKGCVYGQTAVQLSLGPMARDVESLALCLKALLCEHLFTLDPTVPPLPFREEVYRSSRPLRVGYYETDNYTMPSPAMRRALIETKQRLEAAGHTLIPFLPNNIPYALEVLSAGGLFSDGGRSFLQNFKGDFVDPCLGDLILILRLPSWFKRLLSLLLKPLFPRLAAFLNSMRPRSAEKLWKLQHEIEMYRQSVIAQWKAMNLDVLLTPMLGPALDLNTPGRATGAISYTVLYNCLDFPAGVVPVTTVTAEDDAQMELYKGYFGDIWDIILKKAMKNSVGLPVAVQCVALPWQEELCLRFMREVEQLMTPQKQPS
Procedure: as §1

[3] = system: TRPA1 channels; set-up: method as in PMID 21726418; details: read-out: EC50, agonist of TRPA1 channels; cited from earlier work
[4] = system: FAAH; set-up: method as in PMID 21392988; details: non-covalent inhibitor co-crystallized in 3QK5; read-out: half-maximal inhibitory concentration (IC50); cited from earlier work
[5] = purified human FAAH, 10 µM [14C]AEA, 37 °C, 15 min, pH 9.0, dose-response 0–100 µM, read-out: IC50 Towards hFAAH
[6] = rat brain membranes, 10 µM [14C]AEA, 37 °C, 15 min, pH 9.0, dose-response 0–100 µM, read-out: IC50 Towards rFAAH

SMILES	IC50 [1, 5]	% In Vitro Inhibition (At 100 µm) [2]	IC50 [2, 6]	also measured
CCCCCc1cc(O)c2c(c1)OC(C)(CCC=C(C)C)C=C2 (stereo not shown) [CBC, cannabichromene]	> 100 µM	51%	~100 µM	EC50 [3]: 0.09 µM
CCCCCc1cc(O)c(C/C=C(\C)CCC=C(C)C)c(O)c1 [CBG, cannabigerol]	> 100 µM	53%	~100 µM	–
CCCc1cc(O)c2c(c1)OC(C)(C)[C@@H]1CCC(C)=C[C@@H]21 [THCV, Δ^9-tetrahydrocannabivarin]	–	30%	–	IC50 [1]: > 100 µM; IC50 [2]: > 100 µM
C=C1CC/C=C(\C)CC[C@@H]2[C@@H]1CC2(C)C [BCP, β-caryophyllene]	> 100 µM	18%	> 100 µM	–
NC(=O)c1cccc(-c2cccc(OC(=O)NC3CCCCC3)c2)c1 [URB597, reference compound]	–	–	–	inhibition at 10 µM ([1]; read-out: Inhibition of hFAAH activity compared to controls): > 99.5%
Cc1c([C@H]2CCCN(c3nccc(-c4cc5ccccc5s4)n3)C2)c2cccnc2n1CC#N [QK5]	–	–	–	IC50 [4]: 0.018 µM
C=C(C)[C@@H]1CCC(C)=C[C@H]1c1c(O)cc(CCCCC)cc1O [CBD, cannabidiol, reference compound]	> 100 µM	–	–	–
CCCCCc1cc(O)c2c(c1)OC(C)(C)c1ccc(C)cc1-2 [CBN, cannabinol]	–	65%	–	IC50 [1]: ~100 µM; IC50 [2]: 60 ± 10 µM
